Assay results taken from a melting point compilation (Tetko et al.; mined from patent text by program, amines drawn as free bases though some values may be those of a salt).
Residues, ends and D or L forms follow the SMILES beside them. *: point of attachment. Cbz = O=C(OCc1ccccc1)*

Point of comparison: `CCN(CC)CC1CN=C(N)O1` (configuration not stated), melting point 90 °C. Against it:
- Cc1nc2c3c(ccn2c1C)[C@@H](OCCS(C)=O)[C@H](O)[C@@H](c1ccccc1)N3 (some centres not stated) — higher, 105 to 106 °C
- Cc1nc(C(C)(O)c2ccsc2)sc1CCO (configuration not stated) — higher, 127 to 129 °C
- COc1ccc2nc(Cl)nc(Nc3ccccc3)c2c1 — higher, 177 to 179 °C
- C=CCc1cccc2c(=O)cc(-c3ccc(F)c(F)c3)oc12 — higher, 127 to 130 °C
- O=C1CCC2=C(CCc3cc(Cl)cc(Cl)c32)N1 — higher, 212 to 214 °C
- CCCOC1C(O)C(CO)OC1n1cnc2c(NC(=O)C(C)C)nc(NC(=O)C(C)C)nc21 (configuration not stated) — higher, 140 to 142 °C
- Cc1nn(-c2c(Cl)cc(C(F)(F)F)cc2Cl)nc1Br — lower, 82 °C
- NC(=O)NC1CCN(Cc2ccc3ccccc3c2)CC1 — higher, 183 to 185 °C
- Cc1noc(-c2cnc(NC(=O)[C@H](CC3CCCC3)c3ccc(S(C)(=O)=O)c(Cl)c3)cn2)n1 — higher, 101 to 105 °C
- Clc1cncc(Cl)c1C1=NC(c2ccc(Br)cc2)CO1 (configuration not stated) — higher, 102 to 103 °C
- CCN1C(=O)C(C)N(c2ccc(Oc3ccccc3)cc2)C1=S (configuration not stated) — higher, 102 °C
- CN1C(=O)C(NC(=O)CC23CC4CC(CC(C)(C4)C2)C3)N=C(c2ccccc2)c2ccccc21 (racemic) — higher, 195 to 196 °C
- Cc1cn(S(C)(=O)=O)c2c1C(=O)CC(c1ccccc1)C2 (configuration not stated) — lower, 80 to 83 °C
- COC(=O)CCCc1cc2nc(Cl)ccc2n1S(=O)(=O)c1cccc(-c2nccs2)c1 — lower, 82 to 86 °C
- O=C(CSc1ncccn1)NC/C=C\COc1cc(CN2CCCCC2)ccn1 — higher, 103 to 106 °C
- Cc1nnc(Cl)c(-c2c(F)cc(OCCCN(C)C)cc2F)c1-c1ccc(Cl)cc1 — higher, 112 to 113 °C
- CCOC(=O)C1=C(C)NN=C(CC)C1c1cccc(C#N)c1 (configuration not stated) — higher, 91 °C
- CNc1cc(Oc2ccc3c(c2)OCCN3C(=O)Nc2cccc(C(F)(F)F)c2)ncn1 — higher, 180 °C
- Cc1cc(C)n(O)c(=O)c1Cc1ccccc1 — higher, 148 °C
- CCOC(=O)C(C#N)=CNc1csc(-c2ccccc2)c1 — higher, 190 to 193 °C
- O=C(Nc1cccc2c(-n3c(-c4cccnc4)nc4ccccc43)ccnc12)c1c(Cl)cccc1Cl — higher, 203 to 204 °C
- COC(=O)[C@@H]1C[C@H](OC(=O)c2cccs2)C(=O)[C@H]2[C@@]1(C)CC[C@H]1C(=O)O[C@H](c3ccoc3)C[C@]21C — higher, 143 to 145 °C
- CC(=NO)C(C)Oc1ccccc1 (configuration not stated) — lower, 65 to 67 °C
- COc1cc(Nc2nccc(-c3sc(Nc4ccccc4)nc3C)n2)cc(OC)c1 — higher, 191 to 194 °C
- O=C(O)COc1c[nH]c(CCl)cc1=O — higher, 150 to 155 °C
- CCCc1nn(-c2ccc(C(F)(F)F)cn2)cc1CCCOc1ccc(CCC(=O)O)c(OCC)c1 — higher, 119 to 120 °C
- CSc1cccc(-c2ccccc2)c1S(N)(=O)=O — higher, 167 to 168 °C
- Oc1ccc(-c2nnsc2-c2ccc(O)cc2)cc1 — higher, 221 °C
- O=C1COCC2=C1C(c1ccc(F)c(Br)c1)C1=C(CCS1(=O)=O)N2 (configuration not stated) — higher, > 260 °C
- CC(C)(C)c1cn2cccc(C=O)c2n1 — lower, 60 to 62 °C
- CN(CCCc1ccc(F)cc1)[C@H]1CC[C@H](c2ccc3[nH]c(=O)oc3c2)CC1 — lower, 62 to 65 °C
- Cc1cc(NCc2ccc3oc(-c4ccccc4C#N)c(Br)c3c2)n2nccc2n1 — higher, 210 to 215 °C
- COC(=O)[C@H](Cc1ccccc1)NC(=O)[C@H](CC(C)C)NC(=O)OCc1ccccc1 (Cbz-Leu-Phe-OMe) — higher, 91 to 93 °C
- COc1cc2ncnc(N3CCN(C(=O)Nc4ccccc4)CC3)c2cc1OC — higher, 121 to 123 °C
- CC(C)n1nc(-c2c(-c3ccccc3)nn3ccc(C(=O)NC(C)(C)C)cc23)ccc1=O — higher, 200 to 201 °C
- COCCc1nc2c(N)nc3ccc(CCC(=O)N4CCOCC4)cc3c2n1CCCN1CCCC1=O — higher, 168 to 170 °C
- CC(=O)Nc1ccc2c(c1)C(=O)CC2 — higher, 176 to 180 °C
- CC(C)CC1NCCNC1=O (configuration not stated) — lower, 75 to 77 °C
- NC(=O)Cc1ccc(OCCc2coc(-c3ccccc3)n2)cc1 — higher, 180 to 184 °C
- CNC(=NCCn1cc(Cn2ccnc2)c2ccccc21)NC#N — higher, 172 to 173 °C
- Clc1cccnc1-c1ccc2[nH]nc(Nc3cc[nH]n3)c2c1 — higher, 218 to 220 °C
- C=C[C@@H]1O[C@](/C=C/C2CC2)(C(F)(F)F)c2cc(Cl)ccc2NC1=O (relative stereo) — higher, 166 °C
- Cc1cc(Cl)cc(C(=O)NCC2CC2)c1NC(=O)c1cc(Br)nn1-c1ncccc1Cl — higher, 166 to 168 °C
- CCNC1C(C)CN(c2c(F)cc3c(=O)c(C(=O)O)cn(C4CC4)c3c2OC)CC1C (configuration not stated) — higher, 250 to 252 °C
- Cc1c(-c2ccc(NC(=O)NC(C)(C)C)cc2)nc2n1CCc1ccccc1C2OC1CCN(C)CC1 (configuration not stated) — higher, 173 °C
- COc1ccc(CC2CNC(=O)N2)cc1OCc1ccccc1 (configuration not stated) — higher, 154 to 157 °C
- CCNc1cc(O)c(C(=O)c2ccccc2C(=O)O)cc1C — higher, 200 to 202 °C
- COc1cc(Nc2c(C#N)cnc3ccc(-c4csc(CN5CCOCC5)c4)cc23)c(Cl)cc1Cl — higher, 145 to 147 °C
- CCOC(=O)c1cn(CC)c2nc(OC)c(F)cc2c1=O — higher, 181 to 182 °C
- O=C1C(Cl)=C(c2ccccc2)C(=O)N1c1ccccc1 — lower, 82 to 83 °C
- CCC(O)(c1ccccc1)c1cc(OC)c(OC)c(OC)c1 (configuration not stated) — higher, 123 to 124 °C
- COc1ccc(C(=O)CSc2cccc(OC)c2)cc1 — lower, 53 to 54 °C
- CCCc1nc2c(N)nc(C)c(C)c2n1CC1(O)CCCCC1 — higher, 214 to 216 °C
- CCOC(=O)/C(=N\OC1(C)CCCC1)c1csc(N)n1 — higher, 94 to 95 °C
- CC1(C)C(=O)Nc2cc3[nH]c(-c4cnsn4)nc3cc21 — higher, > 300 °C
- FC(F)C(F)(F)Sc1nc(-c2ccccc2)c(-c2cccnc2)[nH]1 — higher, 153 to 154 °C
- NC(=O)c1cccc(OCc2cccc(O)c2)c1 — higher, 122 to 123 °C
- COc1ccc(Cc2cccc(C(Cl)(C3=NCCCN3)c3ccccc3)c2)cc1 (configuration not stated) — higher, 125 °C
- Clc1cc(N2CCNCC2)c(Cl)nn1 — higher, 111 to 115 °C
- COc1ccc(C2S(=O)(=O)CCCS2(=O)=O)cc1OC — higher, 243 to 245 °C
- CS(=O)(=O)c1nccn1-c1nc(-c2ccc(Cl)cc2)c(CCC(=O)O)o1 — higher, 166 to 167 °C
- CC(C)CN1C(=O)COc2cc(F)c(N)cc21 — higher, 176 to 178 °C
- CN(C)CCNc1nccc(N2CCCCCC2)n1 — lower, 53 to 54.5 °C
- O=C(CCc1ccccc1)c1c(O)c2cccnc2n(-c2ccccc2)c1=O — higher, 233 to 234 °C
- CCCCCCCCCCc1ccc2cc(SC)c(OS(=O)(=O)C(F)(F)F)cc2c1 — higher, 149 to 150 °C
- Cc1c(Br)sc2cc(C(=O)Cn3ccnc3)ccc12 — higher, 184 to 186 °C
- CC(=O)OC1CCC2(C)C(=CCC3C2CCC2(C)C(n4cnc5ccccc54)=CCC32)C1 (configuration not stated) — higher, 159 to 160 °C
- Oc1ccc2cc(-c3csc(Cc4c(Cl)cccc4Cl)n3)ccc2c1 — higher, 191 to 193 °C
- CCN1C(=O)C(C)(C)C(=O)N(C)c2cc(CN(CCn3c(=O)ccc4ccccc43)Cc3cnccc3C)ccc21 — higher, 120 to 121 °C
- CCc1cccc(C)c1CNc1cc(Br)cc2c1nc(CO)n2C — higher, 206 to 208 °C
- COC(=O)c1c(C(=O)OC)c2n(c1C)Cc1[nH]c3ccccc3c1C2 — higher, 252 to 253 °C
- CCOc1ccc(S(=O)(=O)N2CCN(CC)CC2)cc1C#N — lower, 86 to 88 °C
- CCOC(=O)c1ccc(O)c(C#N)c1 — higher, 192 to 193 °C
- Cc1ccc(C(=O)c2[nH]c3cc(Cl)ccc3c2CC(=O)O)nc1 — higher, 235 to 238 °C
- C=CCc1cc2c(c(CC=C)c1O)CCC(=O)N2CCO — higher, 106 to 108 °C
- O=C(NO)C(=O)Nc1ccccc1 — higher, 165 to 167 °C
- COC(=O)c1cc(Cl)ccc1-n1c(C)nnc1CCl — higher, 123 to 124 °C
- N#CCCc1ccc(C(=O)O)cc1 — higher, 182 °C
- O=C(O)CCSC1c2ccccc2COc2ccc(OCc3ccc4cc(Cl)ccc4n3)cc21 (configuration not stated) — higher, 178 to 180 °C
- Cc1ccccc1-n1c(-c2cc(-c3ccc(Cl)cc3)c(N3CCOCC3)s2)nc2ccccc2c1=O — higher, 186 to 189 °C
- COc1cc2ncc(C#N)c(Nc3ccc(Sc4nccn4C)c(Cl)c3)c2cc1OC — higher, 302 to 307 °C
- CC(C)(C)c1cc(Br)c2cc(C(C)(C)C)cc(Br)c2c1 — higher, 226 °C
- COC[C@H]1CN(c2ccc([C@H]3CC[C@H](C#N)CC3)cc2)C(=O)O1 — higher, 174 °C
- Nc1nnc(-c2ccc3occ(-c4cc(F)ccc4F)c3c2)o1 — higher, 245 to 246 °C
- N[C@@]1(C(=O)O)C[C@H](NC(=O)Nc2cccc(Cl)c2)[C@H]2[C@H](C(=O)O)[C@H]21 (relative stereo) — higher, > 250 °C
- Nc1nc(-c2ccccn2)nc2ccccc12 — higher, 173 to 174 °C
- COC(=O)c1ccc(Cc2cc3cc(Cl)ccc3n2S(C)(=O)=O)cc1 — higher, 143 °C
- CCOC(=O)c1cc2ccccc2n1CC1CC(=O)N(Cc2ccccc2)C1 (configuration not stated) — higher, 93 to 94 °C
- CCOC(=O)c1ccc(/C=C(\C)c2ccc(OC)c(C3(C)CCCCC3)c2)cc1 — lower, 60 to 62 °C
- COC1=C(OCCCCCc2ccccc2)C2OC2(C=O)C=C1 (configuration not stated) — lower, 65 to 67 °C
- O=C(Nc1ccc(CN2C(=O)[C@H]3CCC[C@H]3Nc3ccccc32)cc1)OCc1ccccc1 (relative stereo) — higher, 162 °C
- O=C(Cc1ccccc1)c1ccncc1 — higher, 94 to 96 °C
- CNCC1Cc2cc(OC)cc(-c3cc(OC)ccc3OC)c2O1 (configuration not stated) — higher, 144 to 145 °C
- CCCn1c(-c2ccc(-n3ccnc3)cc2)cnc1[C@H](Cc1ccccn1)N(C=O)c1cc2cc(Br)ccc2o1 — higher, 93 to 99 °C
- O=C1c2ccc(O)cc2C(=O)N1c1ccc(O)cc1 — higher, 302 to 304 °C
- CSC(N)=C(C#N)C#N — higher, 228 to 229 °C
- CCCCCCCOc1ccc(N=Nc2ccc([N+](=O)[O-])cc2)cc1 — lower, 82.3 to 83.2 °C
- O=c1c2ccccc2ccn2ccnc12 — higher, 219 °C
- COc1cc(-n2c(OC)nc(C(F)(F)F)cc2=O)c(F)cc1Br — higher, 175 to 177 °C
- COC1(c2ccccc2)C=CC(=O)C=C1 — lower, 89 °C
- O=c1cc(-c2ccoc2)c2ccc(Sc3cc(F)cc(-c4cccnc4)c3)cc2o1 — higher, 169 to 170 °C
